Data on three compounds can be found in patent US11718645B2, “Macrocyclic therapeutic agents, methods of manufacture, and methods of treatment” (University of Florida Research Foundation, Incorporated, priority 2014, dated 2023).

A word on the IC50: it is the concentration needed to halve the response being measured. Read a high IC50 as lower potency.

The structures appear in SMILES notation.

A short description of data set [1]: Plasma stability in mouse serum. The format is in vitro ADME. The settings on record: up to 24 h, FIG. 2C. Here is the method: In vitro plasma stability of apratoxin A, S4 (BK), S7 (BL), S8 (BM) and S9 (BN) was done by using a modification of a published method [Chen, X.; Gardner, E. R.; Figg, W. D. J. Chromatogr. B Analyt. Technol. Biomed. Life Sci. 2008, 86, 153-158]. Ten microliters of apratoxin A, BK, BL, BM, or BN (25 μg/mL) were added to 100 μL of mouse serum, and the solution was vortex-mixed for 15 s and incubated for 0.25 min to 24 h (11 time points). At the end of each incubation period, 400 μL of ethyl acetate was added to each tube, followed by 200 μL of harmine to quench the reaction and to extract the remaining apratoxin A or S4 (BK), S7 (BL), S8 (BM) and S9 (BN). Samples were further incubated in a thermomixer at 27° C. (750 rpm, 5 min) and later centrifuged for 5 min at 1643 g. The ethyl acetate layer was collected and evaporated to dryness under nitrogen. Samples were reconstituted in 50 μL of acetonitrile. A volume of 10 μL of the reconstituted solution was injected into the HPLC-MS system.
Analysis of apratoxin A, S4 (BK), S7 (BL), S8 (BM) and S9 (BN) was done by using HPLC-MS [column, Onyx Monolithic C18 (3.0×100 mm), Phenomenex (Torrance, Calif.); solvent, water (solvent A) acetonitrile (solvent B); flow rate, 0.5 ml/min; detection by electrospray ionization-MS in positive ion mode (MRM scan)]. A stepwise gradient elution was used starting at 60% B and 40% A, then increasing to 80% B at 5 min and maintained at this condition for 5 min. Parameters were optimized before analysis by using direct syringe infusion. The retention times (tR, min; MRM ion pair) of the analytes and internal standard are as follows: harmine (2.2; 213.1→169.9), apratoxin A (4.7; 841.4→445.2), apratoxin S4 (BK) (4.1; 828.5→432.2), apratoxin S7 (BL) (4.05; 814.5→418.2), apratoxin S8 (BM) (5.2; 842.5→446.2), apratoxin S9 (BN) (4.9; 828.5→432.2). […]
Calibration curves for apratoxin A, S4 (BK), S7 (BL), S8 (BM) and S9 (BN) in the presence of mouse serum, HCT116 cell lysates, and aqueous solutions were generated by least-square linear regression analysis of the analyte peak area and internal standard peak area ratio against the nominal concentration of the standard solutions. A linear regression analysis was performed, and the concentration of remaining apratoxins at each time point was determined through interpolation for plasma, cellular, and aqueous stability experiments. The amount of remaining apratoxins with microsome incubation was determined from the peak area ratio of apratoxins at tx (3 min to 3 h) and t0. All calculations were done by using Analyst 1.4.2 (Applied Biosystems) Quantitate Mode.

A further data set concerns HCT116 xenograft. Nature of the data set: In vivo efficacy, HCT116 xenograft mouse model. Here is the method: 3-5 week old female nude mice (nu/nu) were obtained from Charles River Laboratory (Wilmington, Mass.). 1×10^6 HCT116 cells in a volume of 100 μL of sterile saline were injected subcutaneously on the left rear flank of a nude mouse to establish tumors. Tumor dimensions were measured using calipers every day and tumor volumes were calculated using the formula W^2×L×0.5, where width (W)≤length (L). Tumors with a starting volume bigger than 100 mm^3 were excluded from the analysis. Mice were injected intraperitoneally with the doses of 2 μg/mouse (0.1 mg/kg), 5 μg/mouse (0.25 mg/kg) of apratoxin S8 (BM) or solvent (DMSO) control every day until the tumor size in one dimension reached 15 mm and tumor tissue was harvested on the following day. 50 mg of tumor tissue was sonicated in PhosphoSafe lysis buffer (EMD chemicals, Inc) and used for immunoblot analysis described as the above. All studies were carried out under the protocol approved by the Institutional Animal Care and Use Committee at the University of Florida.

The test system of another data set is VEGF-A secretion. The data set can be described thus: Measurement of VEGF-A production (alphaLISA) in HCT116 culture supernatants. In kind it is cell-based, human. The conditions noted are these: for IC50: determined after 12 h (n = 3). Here is the method: (§1) Human colon adenocarcinoma HCT116 cells were purchased from ATCC (Manassas, Va.) and cultured in Dulbecco's modified Eagle's medium (Invitrogen, Carlsbad, Calif.) supplemented with 10% fetal bovine serum (HyClone, Logan, Utah) at 37° C. humidified air and 5% CO2.
HCT116 cells (1×10^4 cells per well) were seeded in 96-well plates and one day later treated with various concentrations of apratoxins or solvent control. After 12 h of incubation, culture supernatants were collected for detection of VEGF-A by using an alphaLISA kit (PerkinElmer, Waltham, Mass.) following the manufacturer's instructions. Briefly, acceptor bead and anti-VEGF antibody were incubated first with the supernatants for 60 min, donor beads were added later and incubated for another 30 min and then VEGF-A levels detected using Envision (PerkinElmer).
(In general: Alpha assays give light when donor and acceptor beads are brought close together.)

For another data set, the system named is HCT116 cells. The data set can be described thus: Cell viability assay (MTT). The conditions noted are these: for IC50: determined after 48 h (n = 4). The format is cell-based, human. Here is the method: as §1
HCT116 cells were seeded at a density of 1×10^4 cells per well in 96-well plates. 24 h later the cells were treated with various concentrations of apratoxins or solvent control. After 48 h of incubation, cell viability was detected using MTT according to the manufacturer's instructions (Promega, Madison, Wis.).

For `CC[C@H](C)[C@H]1C(=O)N2CCC[C@@H]2C(=O)O[C@H](C(C)(C)C)C[C@@H](C)C[C@H](O)C(C)(C)C2=N[C@@H](CCC(=O)N[C@@H](Cc3ccc(OC)cc3)C(=O)N(C)[C@@H](C)C(=O)N1C)CS2` [apratoxin S8 (BM), Apratoxin S8], in data set [1], the plasma stability entry is on record as “excellent”. For the same compound, in the data set with HCT116 xenograft (0.1 and 0.25 mg/kg daily i.p.), the “dose dependence of tumor growth inhibition” value is given as “clear dose-dependent tumor growth inhibition”. For the same compound, in the data set with HCT116 xenograft (0.1 and 0.25 mg/kg daily i.p., nude mice), the “signs of toxicity (weight loss, abnormal behavior)” value is “did not observe signs of toxicity”. In addition, in the data set on HCT116 xenograft (higher dose 0.25 mg/kg daily i.p., about 2 weeks), the “effect on tumor growth” value was “strongly retarded the tumor growth”. Also, the tumor growth inhibition result with HCT116 xenograft (lower dose 0.1 mg/kg daily i.p., about 2 weeks) is recorded as “about 50%”. Further, the IC50 in the data set on VEGF-A secretion came out at 0.47 nM; in the data set with HCT116 cells, 1.99 nM.

For `CC[C@H](C)[C@H]1C(=O)N2CCC[C@@H]2C(=O)O[C@H](C(C)(C)C)C[C@@H](C)C[C@H](O)CC2=N[C@@H](CCC(=O)N[C@@H](Cc3ccc(OC)cc3)C(=O)N(C)[C@@H](C)C(=O)N1C)CS2` [apratoxin S7 (BL), Apratoxin S7], the plasma stability entry in data set [1] was “excellent”. The IC50 with VEGF-A secretion came to 0.3 nM; with HCT116 cells it was 1.25 nM.

Take `CC[C@H](C)[C@H]1C(=O)N2CCC[C@@H]2C(=O)O[C@H](C(C)(C)C)C[C@@H](C)C[C@H](O)[C@H](C)C2=N[C@H](CCC(=O)N[C@@H](Cc3ccc(OC)cc3)C(=O)N(C)[C@@H](C)C(=O)N1C)CS2` [apratoxin S9 (BN), Apratoxin S9]: the plasma stability result in data set [1] is listed as “excellent”. Moreover, in the data set on VEGF-A secretion, the “potency relative to the other apratoxins, VEGF-A secretion” value was 2-3 fold and half-maximal inhibition (IC50) was put at 0.12 nM. Also, in the data set on HCT116 cells, the “potency relative to the other apratoxins, cell viability” value is 2-3 fold and the IC50 was determined as 0.69 nM.
